This note sets out measurements from PMC8518494 (Angewandte Chemie (International Ed. in English), 2021).

The target in assay [1] is T1, Y27A-TbpA (Escherichia coli, UniProt P31550, Y27A).
T1 sequence (P31550 19-327 Y27A): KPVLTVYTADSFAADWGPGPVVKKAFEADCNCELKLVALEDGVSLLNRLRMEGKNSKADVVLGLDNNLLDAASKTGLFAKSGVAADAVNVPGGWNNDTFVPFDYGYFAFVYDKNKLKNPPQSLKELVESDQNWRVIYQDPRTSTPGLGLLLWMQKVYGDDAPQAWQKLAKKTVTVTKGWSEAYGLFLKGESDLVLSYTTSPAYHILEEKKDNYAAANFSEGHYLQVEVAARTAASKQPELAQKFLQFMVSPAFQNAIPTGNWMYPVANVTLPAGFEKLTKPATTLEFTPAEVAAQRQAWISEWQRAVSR
As to the kind of experiment: Nanopore recording of ligand binding to Y27A-TbpA inside ClyA-AS.

Assay [2] has as its target T2, WT-TbpA (Escherichia coli, UniProt P31550). As to the kind of experiment: biochemical.
The target in assay [3] is T2, WT-TbpA.

Molecules are shown by their SMILES. Where two headings read alike, the source gives them in different places.

T2 sequence (P31550 19-327): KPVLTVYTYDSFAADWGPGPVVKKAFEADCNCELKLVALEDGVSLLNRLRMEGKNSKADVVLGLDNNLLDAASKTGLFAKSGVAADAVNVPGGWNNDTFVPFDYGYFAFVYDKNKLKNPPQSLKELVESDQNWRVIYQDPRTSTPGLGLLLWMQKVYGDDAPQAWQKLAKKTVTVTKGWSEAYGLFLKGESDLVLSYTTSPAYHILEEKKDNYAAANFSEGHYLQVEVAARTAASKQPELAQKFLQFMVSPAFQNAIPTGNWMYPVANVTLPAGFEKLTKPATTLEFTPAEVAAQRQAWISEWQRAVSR

In general, Hill coefficient refers to the slope factor of the fitted curve. As for `Cc1ncc(C[n+]2csc(CCO)c2C)c(N)n1` [thiamine, Thiamine], the Kd turned out to be 0.0231 ± 0.0001 µM in assay [1] (Kd app(cis), thiamine added to cis, Hill curve fit to bound fraction); 0.0911 ± 0.0004 µM in assay [1] (Kd app(trans), thiamine added to trans); 0.067 ± 0.005 µM in assay [2]. For the same molecule, in assay [1] (Y27A-TbpA), the “difference in apparent Kd between cis and trans” value was found to be 4 fold. The “difference in k on rates between cis and trans” value in assay [1] (Y27A-TbpA) was 4 fold. The “ΔIres%(thiamine)” value in assay [1] (Y27A-TbpA 15 nM cis, 4 μM thiamine added to cis, −45 mV) is reported as 6.9±0.6%; in assay [3] (WT-TbpA 15 nM cis, 4 μM thiamine added to cis, −45 mV, 150 mM NaCl, 15 mM Tris.HCl pH 7.5), 3.1±0.6%. Further, the “Ires%(thiamine), closed state” value in assay [1] (Y27A-TbpA, thiamine-bound state) is on record as 48.4±0.9%; in assay [3] (WT-TbpA, thiamine-bound state), 45.9±0.8%. Besides, the koff in assay [1] (read-out: k off(cis)) worked out at 1.8 ± 0.3 s⁻¹; in assay [1] (read-out: k off(trans)), 1.7 ± 0.1 s⁻¹. The kon in assay [1] (read-out: k on(cis)) was determined as 6.9e+07 ± 9e+06 M⁻¹ s⁻¹; in assay [1] (read-out: k on(trans)), 1.4e+07 ± 3e+06 M⁻¹ s⁻¹. Further, the “effect of addition of thiamine to the trans chamber” value in assay [1] (thiamine added to trans, Y27A-TbpA in cis) is recorded as “induced thiamine events”. In addition, in assay [1] (thiamine, cis and trans), the Hill coefficient stood at 1. Besides, the “effect of addition of thiamine to the trans solution” value in assay [3] (thiamine added to trans, WT-TbpA in cis) was “did not elicit additional current blockades”.
As to `Cc1ncc(C[n+]2csc(CCO[P@](=O)(O)OP(=O)(O)O)c2C)c(N)n1` [ThDP, thiamine diphosphate], the Kd in assay [1] was around 2 µM. The “ΔIres%(ThDP1)” value in assay [1] (2 μM ThDP added to cis, first type of event) came out at 4.0±0.1%. Further, in assay [1] (2 μM ThDP added to cis, second type of event), the “ΔIres%(ThDP2)” value was determined as 7.2±0.1%. The “capture frequency for both events” value in assay [1] (2 μM ThDP, cis) was determined as 6.5 ± 3 µM⁻¹ s⁻¹. Also, the koff in assay [1] (read-out: k off(ThDP1)) came to 2.9 ± 0.4 s⁻¹; in assay [1] (read-out: k off(ThDP2)), 1.7 ± 0.3 s⁻¹.
For the molecule `Cc1ncc(C[n+]2csc(CCOP(=O)(O)O)c2C)c(N)n1` [ThMP, thiamine monophosphate], the “ΔIres%(ThMP1)” value in assay [1] (0.1 μM ThMP added to cis, first kind of bound event) was determined as 4.8±0.2%. In assay [1] (0.1 μM ThMP added to cis, second kind of bound event), the “ΔIres%(ThMP2)” value is 7.3±0.3%. For the same molecule, the kon in assay [1] (read-out: capture frequency (an approximate k on) for both events) came to 1.6e+07 ± 4e+06 M⁻¹ s⁻¹. In addition, the koff in assay [1] (read-out: k off(ThMP1)) came out at 2.3 ± 0.4 s⁻¹; in assay [1] (read-out: k off(ThMP2)) it was 2 ± 0.2 s⁻¹.
